Values joined by “and” are separate entries in the source; they are usually repeats but may differ in a detail not shown here. Equal values may be shown once.
Legend:
Type in all cases: cell-based
Hepatitis B virus [1] = assay: Anti-hepatitis B virus activity in HEP-G2 cells persistently infected with HBV (Table 2); details: 10 μM; for activity at 10 µM: Hepatitis B virus, HepG2, 216 h, 9 days treatment
Method: HEP-G2 cells persistently infected with HBV were treated daily with fresh D-MEM containing 20% FBS and 10 μM compound. After 9 days incubation and treatment, the overlay medium was harvested to assay the quantity of Hepatitis B virus s antigen (HBsAg) and HBeAg by EIA (Abbott Laboratories). The overlay medium was diluted to levels of antigen in the linear range of the assay. Standard curves using dilutions of positive HBsAg and HBeAg controls were included in each assay. Virion DNA was assayed using the method set forth in Korba and Gerin, Antiviral Res., 19, 5,5-70 (1992), incorporated by reference herein. HBV DNA was extracted from the overlay medium containing virus particles and analyzed by a slot-blot hybridization technique using ^32 P-labelled 3.2 Kb Eco R1 HBV DNA fragment by comparisons to HBV standards present on nitrocellulose filters using an AMBIS beta scanner. EC90 values (90% effective concentration, i.e., drug concentration which induces a 90% decrease in the levels of HBV DNA replication intermediates in treated versus control cells) were calculated by linear regression analysis. The relative levels of HBsAg, HBeAg and virion DNA were calulated as a percentage of the average levels obtained from the untreated controls.

[2] = Cytotoxicity of alkyl lipids, neutral red dye uptake (Table 1); details: human, hep-g2 cells
Source text: (§1) Initially, evaluations of the alkyl lipids were done to determine whether the compounds were cytotoxic to the cells at concentrations having anti-HBV activity. The assay methodology is szt forth in Korba and Germ, Antiviral Res., 19, 55-70 (1992), incorporated by reference herein. Briefly, these cell cytotoxicity evaluations were done in 96-well plates seeded with HEP-G2 cell monolayers. The hepatoblastoma cell line HEP-G2 transfected with a plasmid carrying the gene that confers resistance to […] and four 5'-3' tandem copies of the Hepatitis B virus genome was obtained from Dr. George Acs. Proc. Natl. Acad. Sci. USA, 84, 1005-1009 (1987). Serial concentrations of compound were added to the RPMI-1640 growth medium and the growth medium was added to the 96-well plates containing the cell monolayers. The cells were incubated for a total of nine days at 37° C. The compound-containing medium was periodically replaced. Each compound was tested at four serial concentrations in triplicate. After nine days of treatment and incubation, 0.01% neutral red dye (Sigma, Inc.) was added to the overlay medium. Cell cytotoxicity was quantitated by measuring the average A510. Values in Table 1 represent the percentage of average A510 values (±standard deviation) relative to nine non-treated control wells.

Hepatitis B virus [3] = assay: Effect of alkyl lipids on HBV replication in HBV persistently infected human HEP G2 cells (Table 6); details: for Intracellular HBV DNA, Mono (episomal 3.2-3.8 Kb HBV genomes) / Intracellular HBV DNA, RI (replication intermediates): nine days
Method: Cells were treated with a particular compound for nine days at 37° C. Analysis of intracellular HEIV DNA was done 24 hours following the ninth day of treatment. […] The levels of integrated HBV DNA in each cellular DNA preparation were used to calculate the levels of episomal 3.2-3.8 Kb HBV genomes (Mono) and HBV DNA replication intermediates (RI). A zero value indicates an undetectable level of HBV virion DNA. The sensitivity cut-off was 0.1 pg DNA/ml of culture medium.

Hepatitis B virus [4] = assay: Effect on synthesis of antigen markers in persistently infected human HEP G2 cell cultures (Table 7); details: nine days; for activity at 10 µM: Hepatitis B virus, HepG2, 216 h
Method: Cells were treated with compound for nine days at 37° C. The overlay medium was harvested to measure levels of HBsAg, HBeAg and virion DNA. HBsAg and HBeAg were assayed by EIA (Abbott Laboratories). Virion DNA levels were measured as described in section B above.

[5] = Cytotoxicity in HBV persistently infected human HEP G2 cells, neutral red dye uptake (Table 5); details: human, hep-g2 cells, Trial 2, read-out: % of Control Neutral Red Dye Uptake
Source text: as §1
An analysis was periormed to determine the cytotoxicity of the following compounds in human HEP-G2 cells persistently infected with HBV: CP-51, CP-49, CP-9, CP-126, lyso PAF and CP-7. 2'-3'-Dideoxycytidine (ddC) was used as a control in this cytotoxicity analysis. The toxicity analyses were performed in 96-well flat bottomed tissue culture plates following the same procedure set forth in Example 6 above. Each compound was tested at four concentrations, each in triplicate cultures. Uptake of neutral red dye was used to determine the relative level of toxicity. The absorbance of internalized dye at […] (A510) was used for the quantitative analysis.
Values are presented as a percentage of the average A510 values (± standard deviations) in ninz separate cultures of untreated cells maintained on the same 96-well plate as the test compounds. The percentage of dye uptake in the nine control cultures was 100±1.

## CCCCCCCCCCCCCCCCCC(=O)NCC(COP(=O)([O-])OCC[N+](C)(C)C)OC (centres unmarked) [CP-50]
Hepatitis B virus [1]; in words
  activity against HBV-induced virion DNA and HBeAg syntheses: no significant activity
Hepatitis B virus [1]; read-out: Relative Level of HBeAg
  activity at 10 µM: 93%
Hepatitis B virus [1]; read-out: Relative Level of HBsAg
  activity at 10 µM: 104%
Hepatitis B virus [1]; read-out: Relative Level of Virion DNA
  activity at 10 µM: 88%
[2]
  cytotoxicity at 216 h, 30 µM: 0%
  cytotoxicity at 216 h, 100 µM: 5%
  viability at 216 h, 3 µM: 97 ± 2%
  viability at 216 h, 10 µM: 99 ± 2%
  viability at 216 h, 30 µM: 100 ± 3%
  viability at 216 h, 100 µM: 95 ± 2%

## CCCCCCCCCCCCCCCCCCOCC(O)COP(=O)([O-])OCC[N+](C)(C)C (racemic) [lyso PAF, rac-3-octadecyloxy-2-hydroxy-1-propyl phosphocholine]
Hepatitis B virus [3]; 0.1 μM, Day 0
  HBV Virion DNA: 62 pg/ml Culture Medium and 60 pg/ml Culture Medium and 81 pg/ml Culture Medium and 57 pg/ml Culture Medium
Hepatitis B virus [3]; 0.1 μM, Day 3
  HBV Virion DNA: 77 pg/ml Culture Medium and 81 pg/ml Culture Medium and 70 pg/ml Culture Medium and 69 pg/ml Culture Medium
Hepatitis B virus [3]; 0.1 μM, Day 6
  HBV Virion DNA: 80 pg/ml Culture Medium and 79 pg/ml Culture Medium and 64 pg/ml Culture Medium and 88 pg/ml Culture Medium
Hepatitis B virus [3]; 0.1 μM, Day 9
  HBV Virion DNA: 84 pg/ml Culture Medium and 96 pg/ml Culture Medium and 67 pg/ml Culture Medium and 92 pg/ml Culture Medium
Hepatitis B virus [3]; 0.1 μM
  Intracellular HBV DNA, Mono (episomal 3.2-3.8 Kb HBV genomes): 2.5 pg/μg Cell DNA and 2.1 pg/μg Cell DNA and 2.0 pg/μg Cell DNA
  Intracellular HBV DNA, RI (replication intermediates): 84 pg/μg Cell DNA and 96 pg/μg Cell DNA and 67 pg/μg Cell DNA and 71 pg/μg Cell DNA
Hepatitis B virus [3]; 1 μM, Day 0
  HBV Virion DNA: 52 pg/ml Culture Medium and 51 pg/ml Culture Medium and 63 pg/ml Culture Medium and 65 pg/ml Culture Medium
Hepatitis B virus [3]; 1 μM, Day 3
  HBV Virion DNA: 69 pg/ml Culture Medium and 61 pg/ml Culture Medium and 53 pg/ml Culture Medium
Hepatitis B virus [3]; 1 μM, Day 6
  HBV Virion DNA: 72 pg/ml Culture Medium and 79 pg/ml Culture Medium and 81 pg/ml Culture Medium
Hepatitis B virus [3]; 1 μM, Day 9
  HBV Virion DNA: 74 pg/ml Culture Medium and 83 pg/ml Culture Medium and 59 pg/ml Culture Medium and 88 pg/ml Culture Medium
Hepatitis B virus [3]; 1 μM
  Intracellular HBV DNA, Mono (episomal 3.2-3.8 Kb HBV genomes): 2.6 pg/μg Cell DNA and 2.9 pg/μg Cell DNA and 2.4 pg/μg Cell DNA
  Intracellular HBV DNA, RI (replication intermediates): 74 pg/μg Cell DNA and 83 pg/μg Cell DNA and 59 pg/μg Cell DNA and 84 pg/μg Cell DNA
Hepatitis B virus [3]; 10 μM, Day 0
  HBV Virion DNA: 52 pg/ml Culture Medium and 62 pg/ml Culture Medium and 60 pg/ml Culture Medium and 68 pg/ml Culture Medium
Hepatitis B virus [3]; 10 μM, Day 3
  HBV Virion DNA: 65 pg/ml Culture Medium and 71 pg/ml Culture Medium and 51 pg/ml Culture Medium and 50 pg/ml Culture Medium
Hepatitis B virus [3]; 10 μM, Day 6
  HBV Virion DNA: 36 pg/ml Culture Medium and 34 pg/ml Culture Medium and 30 pg/ml Culture Medium and 32 pg/ml Culture Medium
Hepatitis B virus [3]; 10 μM, Day 9, 0 = undetectable, cut-off 0.1 pg DNA/ml
  HBV Virion DNA: 14 pg/ml Culture Medium and 18 pg/ml Culture Medium and 11 pg/ml Culture Medium and 13 pg/ml Culture Medium
Hepatitis B virus [3]; 10 μM
  Intracellular HBV DNA, Mono (episomal 3.2-3.8 Kb HBV genomes): 2.0 pg/μg Cell DNA and 2.4 pg/μg Cell DNA and 2.6 pg/μg Cell DNA and 2.8 pg/μg Cell DNA
  Intracellular HBV DNA, RI (replication intermediates): 15 pg/μg Cell DNA and 22 pg/μg Cell DNA and 18 pg/μg Cell DNA and 21 pg/μg Cell DNA
Hepatitis B virus [4]; 10 μM, 12960 min
  Relative Level of HBeAg: 50 % of Untreated Control
  Relative Level of HBsAg: 80 % of Untreated Control
  Relative Level of Virion DNA: 15 % of Untreated Control
Hepatitis B virus [4]; read-out: Relative Level of HBeAg, 10 μM
  activity at 10 µM: 45%
Hepatitis B virus [4]; read-out: Relative Level of HBsAg, 10 μM
  activity at 10 µM: 78%
Hepatitis B virus [4]; read-out: Relative Level of Virion DNA, 10 μM
  activity at 10 µM: 13%
[5]; 3 μM
  viability at 216 h, 3 µM: 98 ± 2%
[5]; 10 μM
  viability at 216 h, 10 µM: 99 ± 1%
[5]; 30 μM
  viability at 216 h, 30 µM: 98 ± 2%
[5]; 100 μM
  viability at 216 h, 100 µM: 40 ± 6%

— patent US6030960A, “Method of treating hepatitis virus infections” (priority 1998, dated 2000)
